Data: patent publication US11078213B2, “Thienopyrimidine compound, preparation method thereof, pharmaceutical composition and application thereof” (HONGYUN BIOTECH CO., LTD., priority 2016, dated 2021)

Tests used:
Type in all cases: cell-based
[1] = target: T1, NPM-ALK-BaF3 (Homo sapiens, UniProt Q9UM73); experiment: Growth inhibition of BaF3 cells stably transfected with kinase NPM-ALK (MTS); settings: compound concentration 3.3 μM, read-out: cell growth inhibition rate, NPM-ALK
T1 construct: NPM (nuclear phosphoprotein / nucleophosmin, NPM1, P06748) fusion partner; expressed in transfected cells; host or cells: BaF3; the other entry of the earlier key: NPM1 (P06748, Nucleophosmin)
T1 sequence (Q9UM73 with tags, fused parts or gaps): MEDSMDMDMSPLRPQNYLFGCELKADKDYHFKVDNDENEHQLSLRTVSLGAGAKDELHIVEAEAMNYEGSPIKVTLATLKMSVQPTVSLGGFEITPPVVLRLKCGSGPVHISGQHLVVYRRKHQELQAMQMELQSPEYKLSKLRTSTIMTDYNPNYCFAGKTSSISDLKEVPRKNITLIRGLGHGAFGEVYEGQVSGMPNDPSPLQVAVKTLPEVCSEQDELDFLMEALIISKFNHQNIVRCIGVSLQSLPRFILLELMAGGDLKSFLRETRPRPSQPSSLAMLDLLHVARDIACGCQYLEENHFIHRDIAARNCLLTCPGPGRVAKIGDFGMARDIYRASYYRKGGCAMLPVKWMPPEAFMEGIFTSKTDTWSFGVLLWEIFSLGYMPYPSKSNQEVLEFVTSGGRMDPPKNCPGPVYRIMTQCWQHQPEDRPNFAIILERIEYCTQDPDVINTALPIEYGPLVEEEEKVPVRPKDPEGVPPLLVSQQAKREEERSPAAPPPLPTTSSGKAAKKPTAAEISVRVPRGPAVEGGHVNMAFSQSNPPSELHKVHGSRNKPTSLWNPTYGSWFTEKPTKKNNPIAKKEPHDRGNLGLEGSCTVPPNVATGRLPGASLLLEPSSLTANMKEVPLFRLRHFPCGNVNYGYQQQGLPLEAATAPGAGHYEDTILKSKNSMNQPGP
Description: (§1) The specific test method is given as follows:
(§2) 2) Reagent: MTS reaction solution (containing 2 mg/mL of MTS [3-(4,5-dimethylthiazol-2-yl)-5-(3-carboxymethoxyphenyl)-2-(4-sulfophenyl)-2H-tetra zolium, inner Salt]; 100 µg/mL PES ([…])).

[2] = target: T2, EML4-ALK-BaF3 (Homo sapiens, UniProt Q9UM73); experiment: Growth inhibition of BaF3 cells stably transfected with kinase EML4-ALK (MTS); settings: compound concentration 3.3 μM, read-out: cell growth inhibition rate, EML4-ALK
T2 construct: EML4 (echinoderm microtubule associated protein like 4, Q9HC35) fusion partner; expressed in transfected cells; host or cells: BaF3; the other entry of the earlier key: EML4 (Q9HC35, Echinoderm microtubule-associated protein-like 4)
T2 sequence (Q9UM73 1058-1620 limits assumed): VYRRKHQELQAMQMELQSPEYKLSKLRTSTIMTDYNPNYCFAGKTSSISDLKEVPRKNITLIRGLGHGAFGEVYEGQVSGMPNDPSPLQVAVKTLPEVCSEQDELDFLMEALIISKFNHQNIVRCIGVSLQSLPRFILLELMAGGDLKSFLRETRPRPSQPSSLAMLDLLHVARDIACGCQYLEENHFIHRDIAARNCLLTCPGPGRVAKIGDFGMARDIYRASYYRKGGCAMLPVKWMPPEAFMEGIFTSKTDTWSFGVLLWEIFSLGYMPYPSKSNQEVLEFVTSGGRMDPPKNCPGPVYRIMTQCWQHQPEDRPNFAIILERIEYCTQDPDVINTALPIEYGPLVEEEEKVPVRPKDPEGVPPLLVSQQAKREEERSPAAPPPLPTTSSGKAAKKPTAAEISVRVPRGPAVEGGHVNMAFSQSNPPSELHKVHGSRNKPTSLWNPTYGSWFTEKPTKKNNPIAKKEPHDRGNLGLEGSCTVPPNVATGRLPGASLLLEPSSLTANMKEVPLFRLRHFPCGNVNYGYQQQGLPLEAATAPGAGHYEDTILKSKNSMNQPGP
Description: as §1, §2

[3] = system: anaplastic large cell lymphoma Karpas-299; experiment: Growth inhibitory activity on tumor cells Karpas-299; settings: Homo sapiens; Karpas-299 tumor cells
Description: If the tumor cells tested were suspension cells, the assay was carried out in accordance with the method (1) above.
If the tumor cells tested were adherent cells, cells were incubated 1000-10000 cells/well in a 96-well culture plate until adherent, and then compounds were added. Others were carried out in accordance with the method (1) above.

Row | inhibition at 3.3 µM [1] [%] | inhibition at 3.3 µM [2] [%] | IC50 [3] [µM] | Compound
1 | 81.9 | > 99 | – | COc1cc(N2CCC(N(C)C)CC2)ccc1Nc1nc(Nc2ccccc2[S+]([O-])C(C)C)c2sccc2n1 (stereo not shown) [IJ-6]
2 | 90 | 99.9 | – | CNC(=O)c1ccccc1Nc1nc(Nc2cc(C)c(C3CCN(C)CC3)cc2OC)nc2ccsc12 [II-9]
3 | 46.7 | 98.4 | – | COC(=O)c1ccccc1Sc1nc(Nc2ccc(N3CCC(N4CCCC4)CC3)cc2OC)nc2ccsc12 [IN-6]
4 | 93.6 | 96.7 | – | COC(=O)c1ccccc1Nc1nc(Nc2ccc(N3CCC(N4CCN(C)CC4)CC3)cc2)nc2ccsc12 [IE-4]
5 | 87.1 | > 99 | – | COc1cc2c(cc1Nc1nc(Nc3ccccc3[S+]([O-])C(C)C)c3sccc3n1)N(C(=O)CN(C)C)CC2 (stereo not shown) [IJ-1]
6 | 7.09 | 98.3 | – | COC(=O)c1ccccc1Sc1nc(Nc2ccc(N3CCC(O)CC3)cc2)nc2ccsc12 [IN-4]
7 | 77.4 | 99.3 | – | COc1cc(N2CCN(C)CC2)ccc1Nc1nc(Nc2ccccc2P(C)(C)=O)c2sccc2n1 [IK-4]
8 | 6.16 | > 99 | – | CNC(=O)c1cccc(F)c1Nc1nc(Nc2cc3c(cc2OC)CCN3C(=O)CN(C)C)nc2ccsc12 [IF-1]
9 | 88.8 | > 99 | – | COc1cc(N2CCN(C)CC2)ccc1Nc1nc(Nc2ccccc2[S+]([O-])C(C)C)c2sccc2n1 (stereo not shown) [IJ-4]
10 | 87.6 | 98.9 | – | COc1cc(N2CCC(N3CCN(C)CC3)CC2)ccc1Nc1nc(Nc2ccccc2S(C)(=O)=O)c2sccc2n1 [IA-2]
11 | 85.5 | 99.6 | – | COc1cc(C2CCN(C)CC2)c(C)cc1Nc1nc(Nc2ccccc2P(C)(C)=O)c2sccc2n1 [IK-5]
12 | 36.9 | 92.9 | – | CNC(=O)c1ccccc1Nc1nc(Nc2ccc(N3CCC(N4CCN(C)CC4)CC3)cc2)nc2ccsc12 [II-6]
13 | 86 | 99.6 | – | COc1cc(N2CCN(C)CC2)ccc1Nc1nc(Nc2ccccc2S(C)(=O)=O)c2sccc2n1 [IA-4]
14 | 87.6 | 94.9 | – | COc1cc2c(cc1Nc1nc(Nc3ccccc3S(C)(=O)=O)c3sccc3n1)N(C(=O)CN(C)C)CC2 [IA-1]
15 | 79.5 | 98.5 | – | CNC(=O)c1ccccc1Nc1nc(Nc2ccc(N3CCC(N4CCCC4)CC3)cc2OC)nc2ccsc12 [II-7]
16 | 86.7 | > 99 | – | COc1cc2c(cc1Nc1nc(Nc3ccccc3P(C)(C)=O)c3sccc3n1)N(C(=O)CN(C)C)CC2 [IK-1]
17 | 84.2 | 98 | – | COC(=O)c1ccccc1Nc1nc(Nc2cc(C)c(C3CCN(C)CC3)cc2OC)nc2ccsc12 [IE-8]
18 | 87.6 | 97.8 | – | COc1cc(C2CCN(C)CC2)c(C)cc1Nc1nc(Nc2cccc(NS(C)(=O)=O)c2)c2sccc2n1 [IG-4]
19 | 69.5 | 97 | – | COC(=O)c1ccccc1Nc1nc(Nc2ccc(N3CCC(N4CCN(C)CC4)CC3)cc2OC)nc2ccsc12 [IE-1]
20 | 82.5 | > 99 | – | COc1cc(N2CCC(N3CCCC3)CC2)ccc1Nc1nc(Nc2ccccc2P(C)(C)=O)c2sccc2n1 [IK-3]
21 | 90.7 | 98.5 | – | COC(=O)c1cccc(Nc2nc(Nc3ccc(N4CCC(N5CCCC5)CC4)cc3OC)nc3ccsc23)c1 [ID-4]
22 | 85.5 | 96.7 | – | COC(=O)c1ccccc1Nc1nc(Nc2ccc(N3CCN(C)CC3)cc2OC)nc2ccsc12 [IE-3]
23 | 84.2 | 98 | – | COc1cc(C2CCN(C)CC2)c(C)cc1Nc1nc(Nc2ccccc2NS(C)(=O)=O)c2sccc2n1 [IH-5]

Row | inhibition at 3.3 µM [1] [%] | inhibition at 3.3 µM [2] [%] | IC50 [3] [µM] | Compound
24 | 82.8 | 100 | – | COc1cc(N2CCC(N3CCN(C)CC3)CC2)ccc1Nc1nc(Nc2ccccc2P(C)(C)=O)c2sccc2n1 [IK-2]
25 | 87.6 | 99 | – | COC(=O)c1ccccc1Nc1nc(Nc2ccc(N3CCC(N4CCCC4)CC3)cc2OC)nc2ccsc12 [IE-5]
26 | 16.2 | 99.2 | – | COC(=O)c1ccccc1Sc1nc(Nc2ccc(N3CCC(N4CCN(C)CC4)CC3)cc2OC)nc2ccsc12 [IN-2]
27 | 70 | > 99 | – | COC(=O)c1ccccc1Sc1nc(Nc2cc(C)c(C3CCN(C)CC3)cc2OC)nc2ccsc12 [IN-7]
28 | 94.4 | 82.9 | – | COc1cc(N2CCC(N3CCN(C)CC3)CC2)ccc1Nc1nc(Nc2ccccc2S(=O)(=O)C(C)C)c2sccc2n1 [IB-2]
29 | 84.5 | 97.8 | – | COc1cc(N2CCC(N3CCCC3)CC2)ccc1Nc1nc(Nc2ccccc2NS(C)(=O)=O)c2sccc2n1 [IH-6]
30 | 84.8 | 99.9 | – | COc1cc(N2CCC(N3CCCC3)CC2)ccc1Nc1nc(Nc2ccccc2[S+]([O-])C(C)C)c2sccc2n1 (stereo not shown) [IJ-3]
31 | 12 | 87.1 | – | CNC(=O)c1cccc(F)c1Nc1nc(Nc2ccc(N3CCN(C)CC3)cc2OC)nc2ccsc12 [IF-3]
32 | 92.7 | 99.8 | – | COc1cc(N2CCC(N3CCCC3)CC2)ccc1Nc1nc(Nc2ccccc2S(C)(=O)=O)c2sccc2n1 [IA-3]
33 | -24.1 | 99.9 | – | COC(=O)c1cccc(Nc2nc(Nc3cc(C)c(C4CCN(C)CC4)cc3OC)nc3ccsc23)c1 [ID-6]
34 | 12.3 | 98.8 | – | COC(=O)c1ccccc1Sc1nc(Nc2ccc(N3CCN(C)CC3)cc2OC)nc2ccsc12 [IN-3]
35 | 10.9 | > 99 | – | COc1cc(N2CCC(N3CCCC3)CC2)ccc1Nc1nc(Nc2cccc(NS(C)(=O)=O)c2)c2sccc2n1 [IG-5]
36 | 90.2 | 99.3 | – | COc1cc(N2CCC(N(C)C)CC2)ccc1Nc1nc(Nc2ccccc2P(C)(C)=O)c2sccc2n1 [IK-6]
37 | 86.1 | 98.8 | – | COC(=O)c1ccccc1Nc1nc(Nc2cc(C)c(C3CCN(C)CC3)cc2OC(C)C)nc2ccsc12 [IE-7]
38 | 50.5 | 98.2 | – | COC(=O)c1ccccc1Nc1nc(Nc2ccc(N3CCC(O)CC3)cc2)nc2ccsc12 [IE-2]
39 | – | – | 0.061 | C[C@@H](Oc1cc(-c2cnn(C3CCNCC3)c2)cnc1N)c1c(Cl)ccc(F)c1Cl [Crizotinib, reference compound]
40 | 93.9 | > 99 | – | COC(=O)c1cccc(Nc2nc(Nc3cc(C)c(C4CCN(C)CC4)cc3OC(C)C)nc3ccsc23)c1 [ID-5]
41 | 86.6 | > 99 | – | CNC(=O)c1ccccc1Nc1nc(Nc2cc(C)c(C3CCN(C)CC3)cc2OC(C)C)nc2ccsc12 [II-8]
42 | 6.73 | 30.9 | – | COC(=O)c1ccccc1Sc1nc(Nc2ccc(S(N)(=O)=O)cc2)nc2ccsc12 [IN-5]
43 | 87.7 | 99.3 | – | COc1cc(N2CCC(N3CCN(C)CC3)CC2)ccc1Nc1nc(Nc2ccccc2[S+]([O-])C(C)C)c2sccc2n1 (stereo not shown) [IJ-2]
44 | 17.7 | 100 | – | COC(=O)c1ccccc1Sc1nc(Nc2cc3c(cc2OC)CCN3C(=O)CN(C)C)nc2ccsc12 [IN-1]
45 | 0 | 98.5 | – | CCOc1cc(N2CCN(C)CC2)ccc1Nc1nc(Nc2ccccc2C(=O)OC)c2sccc2n1 [IE-6]
46 | 2.77 | 3.41 | – | CNC(=O)c1cccc(F)c1Nc1nc(Nc2ccc(N3CCC(N4CCN(C)CC4)CC3)cc2OC)nc2ccsc12 [IF-2]
